The values below come from patent publication US6476263B1, “Compounds for inhibiting β-amyloid peptide release and/or its synthesis” (Elan Pharmaceuticals, Inc., priority 1996, dated 2002).

Residues, ends and D or L forms follow the SMILES beside them. *: point of attachment. PhAc = O=C(Cc1ccccc1)*; Boc = CC(C)(C)OC(=O)*

Usually melting point stands for the temperature of the solid-liquid transition.

`COC(=O)[C@@H](NC(=O)[C@H](Cc1ccccc1)NC(=O)Cc1cc(F)cc(F)c1)c1ccccc1` [Example 197, N-[N-(3,5-Difluorophenylacetyl)-L-phenylalaninyl]-L-phenylglycine Methyl Ester] came in with a melting point of 188.3 °C. The same measure for `COC(=O)[C@@H](NC(=O)CNC(=O)Cc1cc(F)cc(F)c1)c1ccccc1` [Example 198, N-[N-(3,5-Difluorophenylacetyl)glycinyl]-L-phenylglycine Methyl Ester]: 142.3 °C; for `COC(=O)[C@@H](NC(=O)[C@@H](NC(=O)Cc1cc(F)cc(F)c1)c1ccccc1)c1ccccc1` [Example 199, N-[N-(3,5-Difluorophenylacetyl)-L-phenylglycinyl]-L-phenylglycine Methyl Ester]: 222.8 °C. In the case of `COC(=O)[C@H](C)NC(=O)[C@H](C)NC(=O)Cc1ccccc1` [Example 200, N-[N-(Phenylacetyl)-L-alaninyl]-L-alanine Methyl Ester] (HELM PEPTIDE1{[O=C(Cc1ccccc1)[*:2]].A.A.[CO[*:1]]}$$$$V2.0) it was 140.5 to 142 °C; in that of `COC(=O)[C@H](CC(C)C)NC(=O)[C@H](C)NC(=O)Cc1ccccc1` [Example 201, N-[N-(Phenylacetyl)-L-alaninyl]-L-leucine Methyl Ester] (HELM PEPTIDE1{[O=C(Cc1ccccc1)[*:2]].A.L.[CO[*:1]]}$$$$V2.0), 102.5 to 105 °C; in that of `COC(=O)[C@H](Cc1ccccc1)NC(=O)[C@H](C)NC(=O)Cc1ccccc1` [Example 204, N-[N-(Phenylacetyl)-L-alaninyl]-L-phenylalanine Methyl Ester], 148 to 149.5 °C. The same measure for `COC(=O)[C@H](CCCCNC(=O)OC(C)(C)C)NC(=O)[C@H](C)NC(=O)Cc1ccccc1` [Example 205, N-[N-(Phenylacetyl)-L-alaninyl]-Nε-(tert-butoxycarbonyl)-L-lysine Methyl Ester] (PhAc-Ala-Lys(Boc)-OMe): 119 to 121 °C; for `COC(=O)CNC(=O)[C@H](C)NC(=O)Cc1ccccc1` [Example 206, N-[N-(Phenylacetyl)-L-alaninyl]glycine Methyl Ester] (HELM PEPTIDE1{[O=C(Cc1ccccc1)[*:2]].A.G.[CO[*:1]]}$$$$V2.0): 152 to 153.5 °C.

Compound `COC(=O)[C@@H](NC(=O)[C@H](C)NC(=O)Cc1ccccc1)C(C)C` [Example 207, N-[N-(Phenylacetyl)-L-alaninyl]-L-valine Methyl Ester] (HELM PEPTIDE1{[O=C(Cc1ccccc1)[*:2]].A.V.[CO[*:1]]}$$$$V2.0) registered a melting point of 112 to 115 °C. In the case of `CC[C@H](NC(=O)[C@H](C)NC(=O)Cc1ccccc1)C(=O)OC` [Example 208, Methyl N-[N-(Phenylacetyl)-L-alaninyl]-2-(S)-aminobutanoate] (HELM PEPTIDE1{[O=C(Cc1ccccc1)[*:2]].A.[Abu].[CO[*:1]]}$$$$V2.0) it was 120 °C; in that of `CCC[C@H](NC(=O)[C@H](C)NC(=O)Cc1ccccc1)C(=O)OC` [Example 209, Methyl N-[N-(Phenylacetyl)-L-alaninyl]-2-(S)-aminopentanoate] (HELM PEPTIDE1{[O=C(Cc1ccccc1)[*:2]].A.[Nva].[CO[*:1]]}$$$$V2.0), 135 to 137 °C; in that of `COC(=O)C1CCCCN1C(=O)[C@H](C)NC(=O)Cc1cc(F)cc(F)c1` (stereo partly drawn) [Example 218, Methyl 1-[N-(3,5-Difluorophenylacetyl)-L-alaninyl]piperidine-2-carboxylate], 114 to 118 °C. In the case of `COC(=O)[C@@H](NC(=O)CC1CCCC[C@@H]1NC(=O)Cc1cc(F)cc(F)c1)c1ccccc1` (stereo partly drawn) [Example 225, N-[N-(3,5-Difluorophenylacetyl)-2-(S)-aminocyclohexylacetyl]-L-phenylglycine Methyl Ester] it was 234.4 °C; in that of `O=C(Cc1cc(F)cc(F)c1)N[C@H](C(=O)N[C@H](CO)c1ccccc1)c1ccccc1` [Example 245, N-[N-(3,5-Difluorophenylacetyl)-L-phenylglycinyl]-L-phenylglycinol], 231.4 °C; in that of `O=C(CC1CC1)N[C@H](C(=O)N[C@H](CO)c1ccccc1)c1ccccc1` [Example 246, N-[N-(Cyclopropaneacetyl)-L-phenylglycinyl]-L-phenylglycinol], 202.5 °C.

As for `O=C(CC1CCCC1)N[C@H](C(=O)N[C@H](CO)c1ccccc1)c1ccccc1` [Example 247, N-[N-(Cyclopentaneacetyl)-L-phenylglycinyl]-L-phenylglycinol], the melting point was found to be 201.4 °C. In the case of `CCCC[C@H](NC(=O)Cc1cc(F)cc(F)c1)C(=O)N[C@H](C(=O)OC)c1ccccc1` [Example 252, N-[N-(3,5-Difluorophenylacetyl)-L-norleucinyl]-L-phenylglycine Methyl Ester] it was 188 to 189.5 °C; in that of `CCC[C@H](NC(=O)Cc1cc(F)cc(F)c1)C(=O)N[C@H](C(=O)OC)c1ccccc1` [Example 253, N-[N-(3,5-Difluorophenylacetyl)-L-norvalinyl]-L-phenylglycine Methyl Ester], 204 to 205 °C; in that of `COC(=O)[C@@H](NC(=O)[C@@H](NC(=O)Cc1cc(F)cc(F)c1)C(C)(C)C)c1ccccc1` [Example 254, N-[N-(3,5-Difluorophenylacetyl)-L-tert-leucinyl]-L-phenylglycine Methyl Ester], 176.4 °C. In the case of `CC[C@H](C)[C@H](NC(=O)Cc1cc(F)cc(F)c1)C(=O)N[C@H](C(=O)OC)c1ccccc1` [Example 255, N-[N-(3,5-Difluorophenylacetyl)-L-isoleucinyl]-L-phenylglycine Methyl Ester] it was 228.8 °C; in that of `COC(=O)[C@@H](NC(=O)[C@@H](NC(=O)Cc1cc(F)cc(F)c1)C1CC1)c1ccccc1` [Example 257, N-[N-(3,5-Difluorophenylacetyl)-(S)-2-amino-2-(cyclopropyl)acetyl]-L-phenylglycine Methyl Ester], 225 to 226.5 °C; in that of `COC(=O)[C@@H](NC(=O)[C@@H](NC(=O)Cc1cc(F)cc(F)c1)c1ccsc1)c1ccccc1` [Example 258, N-[N-(3,5-Difluorophenylacetyl)-(S)-2-amino-2-(thien-3-yl)acetyl]-L-phenylglycine Methyl Ester], 229.3 °C. Turning to `COC(=O)[C@@H](NC(=O)[C@H](NC(=O)Cc1cc(F)cc(F)c1)c1cccs1)c1ccccc1` [Example 259, N-[N-(3,5-Difluorophenylacetyl)-(S)-2-amino-2-(thien-2-yl)acetyl]-L-phenylglycine Methyl Ester], the melting point was 230.8 °C. The same measure for `CC(C)(C)OC(=O)[C@@H](NC(=O)[C@@H](NC(=O)Cc1cc(F)cc(F)c1)c1ccccc1)c1ccccc1` [Example 263, N-[N-(3,5-Difluorophenylacetyl)-L-phenylglycinyl]-L-phenylglycine tert-Butyl Ester]: 185 °C. In the case of `CC(C)(C)OC(=O)[C@@H](NC(=O)[C@@H](NC(=O)CC1CC1)c1ccccc1)c1ccccc1` [Example 264, N-[N-(Cyclopropylacetyl)-L-phenylglycinyl]-L-phenylglycine tert-Butyl Ester] it was 187.5 °C; in that of `CC(C)(C)OC(=O)[C@@H](NC(=O)[C@@H](NC(=O)CC1CCCC1)c1ccccc1)c1ccccc1` [Example 265, N-[N-(Cyclopentylacetyl)-L-phenylglycinyl]-L-phenylglycine tert-Butyl Ester], 190.8 °C.

Compound `CCCC[C@H](NC(=O)[C@H](C)NC(=O)Cc1cc(F)cc(F)c1)C(=O)O` [Example 327, N-[N-(3,5-Difluorophenylacetyl)-L-alaninyl]-L-norleucine] had a melting point of 158.5 to 160.5 °C. As for `C[C@H](NC(=O)CC1CCCC1)C(=O)N[C@H](C(=O)OC(C)(C)C)c1ccccc1` [Example 328, N-[N-(Cyclopentaneacetyl)-L-alaninyl]-L-phenylglycine tert-Butyl Ester], the melting point is 133 to 138 °C.
